Key:
serum ApoA1 [1] = experiment: Serum apoA1 in wild-type mice after 7 days of treatment (immuno-turbidimetric assay); type: in vivo, wild-type (WT; C57BL/6) mice; conditions: for apoA1 relative to controls (methylcellulose): gavage once daily 7 days, 100 mg/kg, gemfibrozil 20 mg/Kg, troglitazone 6 and 60 mg/Kg, Dunnett's procedure
Experimental: (§1) PXR-KO mice were treated with either rifampicin, gemfibrozil, or CDD 3540. In all cases methylcellulose was used as a vehicle control. These chemicals were administered, as a suspension in 1% methylcellulose (vehicle) by gavage using a 20 G—1½-inch feeding needle. The animals were treated in groups of three and for each treated group two mice were treated simultaneously with methylcellulose (vehicle). Each treatment was given once daily in the morning for seven days. The doses were 100 mg/kg for CTZ, rifampicin, CDD 3540, phenobarbital and TCPOBOP, 6 mg/kg and 60 mg/Kg for troglitazone and 0.175 mg/Kg and 1.75 mg/Kg for hyperforin, and for gemfibrozil 20 mg/Kg and 100 mg/Kg. The volume of vehicle used to suspend the treatment drugs and the dose of vehicle for control group was 7 ml/kg.
(§2) After the completion of the treatment (i.e. on day 8), blood samples were collected from the tail of the animals for serum HDL-C and ApoA1 determination. Blood samples were allowed to clot for 2 hours, centrifuged at 14,000 rpm for 20 minutes, and serum was collected. The serum samples were then stored at −20° C. for up to 24 hours before quantitative determination of HDL-C and ApoA1.
An immuno-turbidimetric assay was developed for quantitative determination of ApoA1 in mouse serum. Commercially available stock solution of purified mouse ApoA1 (79 mg/dl) was used to construct a standard curve. A potassium phosphate buffer solution was prepared by diluting 1 ml of monobasic 1.0 M potassium phosphate buffer to 10 ml with distilled water, and the pH of the solution was adjusted to 7.2 using 0.1 N NaOH. […] A dilution of 1:4000 of the stock concentration was used per the manufacturer's recommendation. The standard curve was prepared with 0, 39.5, 79, and 158 mg/dl of mouse apoA1. 1 μl of mouse plasma was mixed with 3 μl of distilled water for quantitation of apoA1. 500 μl of buffer solution was added to 4 μl of total sample volume prepared as described. After 5 minutes, 100 μl of antibody solution was added. The mixture was allowed to incubate at 37° C. for 3 minutes. Absorbance was measured at 580 nm using a Beckmann DU640 Spectrophotometer. Each sample or standard was analyzed twice, and the average of both readings was used. Serum ApoA1 concentrations from control mice were also compared with the normal ApoA1 levels in mice, obtained from the literature, to affirm the validity of the assay procedure.
Statistical treatments for HDL-C and apoA1 in mice were identical. For each of these variables, three basic analyses were performed, one for WT mice, one for PXR-KOs, and one for the two groups combined. Statistical analysis was performed in SAS (SAS Release 8, 1999, SAS Institute Inc., Cary, N.C.). In all cases the primary method of comparing treatments was ANOVA. Prior to performing this analysis, both variables were normalized by the geometric mean of their associated controls. Normality and homoscedasticity (constancy of variance across groups) were evaluated, with an appropriate data transformation (logarithmic) applied if necessary. These properties were checked before (to evaluate the need for transformation) and after transformation (to confirm the adequacy of the transformation) using normal probability plots and Levene's test for equality of variances (Snedecor et al., Statistical Methods, 8th Edition, Iowa State University Press, pp. 59-62 and 252-253, 1989). […]

serum HDL-C = experiment: Serum HDL-C in wild-type mice after 7 days of treatment; type: in vivo, wild-type (WT; C57BL/6) mice; conditions: for HDL-C relative to controls (methylcellulose): gavage once daily 7 days, 100 mg/kg, gemfibrozil 20 mg/kg, troglitazone 6 and 60 mg/Kg, Dunnett's procedure
Experimental: In all cases methylcellulose was used as a vehicle control. These chemicals were administered, as a suspension in 1% methylcellulose (vehicle) by gavage using a 20 G—1½-inch feeding needle. The animals were treated in groups of three and for each treated group two mice were treated simultaneously with methylcellulose (vehicle). Each treatment was given once daily in the morning for seven days. […] The volume of vehicle used to suspend the treatment drugs and the dose of vehicle for control group was 7 ml/kg. Doses were selected based on the results obtained from previous studies in rats except for troglitazone and hyperforin, for which doses were weight-adjusted using estimates of average daily human doses as reference. After the completion of the treatment (i.e. on day 8), blood samples were collected from the tail of the animals for serum HDL-C and ApoA1 determination. Blood samples were allowed to clot for 2 hours, centrifuged at 14,000 rpm for 20 minutes, and serum was collected. The serum samples were then stored at −20° C. for up to 24 hours before quantitative determination of HDL-C and ApoA1. HDL-C was determined quantitatively in the serum using Liquid Direct HDL kits. The kit contained reagent 1, reagent 2, and HDL calibrator. The assay consisted of two steps. […] The peroxide byproduct of this reaction is rendered non-colored via catalase reduction. […] In this second step, the catalase is inhibited, the remaining HDL cholesterol specifically reacts with cholesterol esterase and cholesterol oxidase, and in the presence of peroxidase the peroxide byproduct reacts with 4-aminoantipyrine and HDAOS to form a colored […] dye. Both these reactions were allowed to occur at 37° C. […] Each sample was analyzed twice, and the average of both readings was used. Statistical treatments for HDL-C and apoA1 in mice were identical. For each of these variables, three basic analyses were performed, one for WT mice, one for PXR-KOs, and one for the two groups combined. Statistical analysis was performed in SAS (SAS Release 8, 1999, SAS Institute Inc., Cary, N.C.). In all cases the primary method of comparing treatments was ANOVA. Prior to performing this analysis, both variables were normalized by the geometric mean of their associated controls. Normality and homoscedasticity (constancy of variance across groups) were evaluated, with an appropriate data transformation (logarithmic) applied if necessary. These properties were checked before (to evaluate the need for transformation) and after transformation (to confirm the adequacy of the transformation) using normal probability plots and Levene's test for equality of variances (Snedecor et al., Statistical Methods, 8th Edition, Iowa State University Press, pp. 59-62 and 252-253, 1989). […]

serum ApoA1 [2] = experiment: Serum apoA1 in PXR-KO mice after 7 days of treatment; type: in vivo; conditions: for apoA1 relative to control: gavage once daily 7 days, gemfibrozil 20 mg/kg, others 100 mg/kg
Experimental: as §1, §2
An immuno-turbidimetric assay was developed for quantitative determination of ApoA1 in mouse serum. Commercially available stock solution of purified mouse ApoA1 (79 mg/dl) was used to construct a standard curve. A potassium phosphate buffer solution was prepared by diluting 1 ml of monobasic 1.0 M potassium phosphate buffer to 10 ml with distilled water, and the pH of the solution was adjusted to 7.2 using 0.1 N NaOH. […] 1 μl of mouse plasma was mixed with 3 μl of distilled water for quantitation of apoA1. […] Absorbance was measured at 580 nm using a Beckmann DU640 Spectrophotometer. Each sample or standard was analyzed twice, and the average of both readings was used. […]
Statistical treatments for HDL-C and apoA1 in mice were identical. […] Normality and homoscedasticity (constancy of variance across groups) were evaluated, with an appropriate data transformation (logarithmic) applied if necessary. […]

CYP3A = CYP3A activity in rats (hepatic microsomal EDM activity, ethosuximide clearance); type: in vivo, rat
Experimental: (§3) Treatments were administered by gavage once daily in the morning for eight (8) days.
Ethosuximide was prepared as a 3.5% (w/v) solution dissolved in normal saline. Ethosuximide was administered in a dose of 35 mg/kg via tail vein injection 24 hours following the eighth pretreatment dose.
(§4) Whole blood was collected by cardiac puncture under CO2 anesthesia 8 hours following ethosuximide infusion. Animals were then sacrificed using CO2 and cervical dislocation. Livers were excised and used for analysis of erythromycin demethylase activity (as described in the Slama et al. reference) and hepatic apoA1 mRNA. Plasma was separated from whole blood anticoagulated with 5 mM EDTA at room temperature using a bench top centrifuge (5000 rpm) for 5 minutes. Plasma was stored unpreserved at −20° C. for up to 5 days, and subsequently analyzed for ethosuximide and for HDL-C. Concentrations of ethosuximide and HDL-C were measured in plasma by fluorescence polarization immunoassay (fpia) using a TDx analyzer (Abbott Laboratories, Irving, Tex.) and commercially available reagents (Abbott Laboratories, Abbott Park, Ill.).

hepatic apoA1 mRNA [3] = experiment: Hepatic apoA1 mRNA in rats after 8 days of treatment; type: in vivo, rat
Experimental: as §4, with “Treatments were administered by gavage once daily in the morning for eight (8) days. Whole” for “Whole”, “-20°” for “−20°”, “Ill.). […] Hepatic apoA1 mRNA was measured by Northern Blot hybridization to total hepatic RNA with oligonucleotides for apoprotein A1 and elongation factor-1α (EF-1α). The procedure was similar to that described in the Slama et al. reference for hepatic CYP3A mRNA. […]” for “Ill.).”

HDL-C = HDL-C in rats after 8 days of treatment; type: in vivo, rat
Experimental: as §3, §4

hepatic apoA1 mRNA [4] = experiment: Time course of hepatic apoA1 mRNA in rats (Northern blot); type: in vivo, rat; conditions: 50 mg/Kg by gavage once daily, beginning after treatment day 2 and constant thereafter, p<0.05 vs vehicle controls
Experimental: Hepatic apoA1 mRNA was measured by Northern Blot hybridization to total hepatic RNA with oligonucleotides for apoprotein A1 and elongation factor-1α (EF-1α). The procedure was similar to that described in the Slama et al. reference for hepatic CYP3A mRNA. The following oligonucleotide sequence used for rat apoA1 mRNA was based on the nucleotide sequence for rat apoA1 described by Haddad et al. (“Linkage, evolution and expression of the rat apolipoprotein A-1, C-III, and A-IV genes,” J Biol Chem 1986; 261: 13268-13277): 3′ CTACGTCAGTTCCTGTCGCCGTCTCTGATACACAGGGTCAAACTTAGGAGGTGAAACCCG 5′.
[…] were dosed with CDD 3540 (50 mg/Kg) by gavage once daily for 8 days, and three rats were treated with methylcellulose (vehicle controls). Groups of three treated rats were sacrificed at 6 and 12 h after the first dose, 12 and 24 h after the second dose, and at 12 hours after doses 4-8, respectively. Hepatic apoA1 mRNA was quantitated by northern blot analysis as described above.
Temporal differences in hepatic apoA1 mRNA in rats were evaluated by a simple Analysis of Variance (ANOVA) and a Tukey's post-hoc test.

## Clc1cnc(Oc2ccc(Oc3ncc(Cl)cc3Cl)cc2)c(Cl)c1 [TCPOBOP, 1,4-bis[2-(3,5-dichloropyridyloxy)]benzene]
Serum ApoA1 [1]
  apoA1 relative to controls (methylcellulose): did not significantly elevate
Serum HDL-C
  HDL-C relative to controls (methylcellulose): did not significantly elevate

## Cc1ccc(C)c(OCCCC(C)(C)C(=O)O)c1 [gemfibrozil]
Serum ApoA1 [1]; apoA1 and HDL-C, declined with higher doses
  dose at peak of the dose-response curve: 20 mg/kg
Serum ApoA1 [1]
  apoA1 relative to controls (methylcellulose): significantly elevated
Serum ApoA1 [2]
  apoA1 relative to control: significantly increase
Serum ApoA1 [2]; gemfibrozil 20 mg/kg once daily 7 days
  increase in apoA1 relative to control: ~1.7 fold
Serum HDL-C
  HDL-C relative to controls (methylcellulose): significantly elevated

## Fc1ccc(C(c2ccc(F)cc2)(c2ccc(F)cc2)n2ccnc2)cc1 [CDD 3540]
Serum ApoA1 [1]; 100 mg/kg once daily 7 days
  increase in apoA1 relative to controls: ~3.7 fold
Serum ApoA1 [1]
  apoA1 relative to controls (methylcellulose): significantly elevated
Serum ApoA1 [2]
  apoA1 relative to control: neither rifampin nor CDD 3540 elicited significant changes
Serum HDL-C
  HDL-C relative to controls (methylcellulose): significantly elevated
CYP3A
  CYP3A activity: increase
Hepatic apoA1 mRNA [3]
  apoA1: increase
HDL-C
  HDL-C: increase
Hepatic apoA1 mRNA [4]
  increase in hepatic apoA1: ~45%

## CO[C@H]1/C=C/O[C@@]2(C)Oc3c(C)c(O)c4c(O)c(c(/C=N/N5CCN(C)CC5)c(O)c4c3C2=O)NC(=O)/C(C)=C\C=C\[C@H](C)[C@H](O)[C@@H](C)[C@@H](O)[C@@H](C)[C@H](OC(C)=O)[C@@H]1C [rifampin, rifampicin]
Serum HDL-C; 100 mg/Kg once daily 7 days
  increase in HDL-C: about 25%
